According to patent publication USRE48097E1, “Cephem compounds, their production and use” (priority 2015, dated 2020):
≈ marks a conversion by molar mass, not a printed value. Like-named read-outs stand apart in the source and are kept apart here.

Columns and labels:
S. aureus 3136 = experiment: MIC against S. aureus 3136; type: cell-based; conditions: Staphylococcus aureus; Table 2; S. aureus 3136, MSSA; alone; read-out: MIC
Excerpt: (§1) Without limitation, the present cephem compounds alone, or in combination with one or more β-lactamase inhibitors, may provide improved antibacterial efficacy, particularly in antibiotic-resistant bacterial strains. It is believed that the present compounds may be structurally different from known compounds and, as a result, may be more basic in nature. It is an advantage that the present compounds may extend the spectrum of effective bacterial compounds, particularly against previously-resistant bacteria (e.g. ESKAPE organisms), and/or gram negative bacteria, without significant side effects. In a preferred embodiment, the present cephem compound may comprise reference compound ceftazidime, which may be used alone, or in combination with one or more β-lactamase inhibitors, such as NXL-104. As shown, the foregoing composition was tested for minimum inhibitory concentration (MIC, μg/mL) against bacteria listed in Tables 2-3.

S. aureus3137 = experiment: MIC against S. aureus3137; type: cell-based, S. aureus; conditions: Staphylococcus aureus; Table 2; S. aureus3137, MSSA; alone; read-out: MIC
Excerpt: as §1

S. aureus 3144 = experiment: MIC against S. aureus 3144; type: cell-based; conditions: Staphylococcus aureus; Table 2; S. aureus 3144, MSSA; alone; read-out: MIC
Excerpt: as §1

[1] = system: S. pneumoniae ATCC 700673; experiment: MIC against S. pneumoniae ATCC 700673; type: cell-based; conditions: Streptococcus pneumoniae, ATCC700673; Table 2; S. pneumoniae ATCC 700673, Pen R; alone; read-out: MIC
Excerpt: as §1

S. pneumoniae 2389 = experiment: MIC against S. pneumoniae 2389; type: cell-based; conditions: Streptococcus pneumoniae; Table 2; S. pneumoniae 2389, Pen R; alone; read-out: MIC
Excerpt: as §1

C. freundii 2487 = experiment: MIC against C. freundii 2487; type: cell-based; conditions: Citrobacter freundii; Table 2; C. freundii 2487, Caz R, IMP S; alone; read-out: MIC
Excerpt: as §1

K. pneumoniae 4104 = experiment: MIC against K. pneumoniae 4104; type: cell-based; conditions: K. pneumoniae 4104, KPC-3, TEM-1, alone, read-out: MIC
Procedure: (§2) As shown, the foregoing composition was tested for minimum inhibitory concentration (MIC, μg/mL) against bacteria listed in Tables 2-3.

K. pneumoniae 4107 = experiment: MIC against K. pneumoniae 4107; type: cell-based; conditions: K. pneumoniae 4107, KPC-2, TEM-1, SHV-11, alone, read-out: MIC
Procedure: as §2

E. coli 4102 = experiment: MIC against E. coli 4102; type: cell-based; conditions: Escherichia coli; Table 2; E. coli 4102, CTX-M-14; alone; read-out: MIC
Excerpt: as §1

K. baumanii 2579 = experiment: MIC against K. baumanii 2579; type: cell-based; conditions: Table 2; K. baumanii 2579, OXA-25; alone; read-out: MIC
Excerpt: as §1

E. coli 2668 = experiment: MIC against E. coli 2668; type: cell-based; conditions: Escherichia coli; Table 2; E. coli 2668, OXA-48; alone; read-out: MIC
Excerpt: as §1

E. cloacae 2689 = experiment: MIC against E. cloacae 2689; type: cell-based; conditions: Enterobacter cloacae; Table 3; E. cloacae 2689, KPC-2; alone; read-out: MIC
Procedure: as §2

E. coli 4103 = experiment: MIC against E. coli 4103; type: cell-based; conditions: Escherichia coli; Table 3; E. coli 4103, KPC-2, TEM-1, CMY-type; alone; read-out: MIC
Procedure: as §2

K. pneumoniae 4088 = experiment: MIC against K. pneumoniae 4088; type: cell-based; conditions: Klebsiella pneumoniae; Table 3; K. pneumoniae 4088, KPC-3; alone; read-out: MIC
Procedure: as §2

## CC(C)(O/N=C(\C(=O)N[C@@H]1C(=O)N2C(C(=O)[O-])=C(C[n+]3ccc4c(ccn4Cc4ccc(C(=N)N)cc4)c3)CS[C@H]12)c1csc(N)n1)C(=O)O [Ex-1, (6R,7R)-7-{[(2Z)-2-(2-Amino-1,3-thiazol-4-yl)-2-{[(2-carboxypropan-2-yl)oxy]imino}acetyl]-amino}-3-{[1-(4-carbamimidoylbenzyl)-1H-pyrrolo[3,2-c]pyridin-5-ium-5-yl]methyl}-8-oxo-5-thia-1-azabicyclo[4.2.0]oct-2-ene-2-carboxylate]
S. aureus 3136
  MIC: 2 µg/mL
S. aureus3137
  MIC: 8 µg/mL
S. aureus 3144
  MIC: 4 µg/mL
[1]
  MIC: 2 µg/mL
S. pneumoniae 2389
  MIC: 4 µg/mL
C. freundii 2487
  MIC: 32 µg/mL
K. pneumoniae 4104; Klebsiella pneumoniae, 4104, Table 2
  MIC: 16 µg/mL (≈ 22.3 µM)
K. pneumoniae 4104; Klebsiella pneumoniae, 4104, Table 3
  MIC: 32 µg/mL (≈ 44.6 µM)
K. pneumoniae 4107; Klebsiella pneumoniae, 4107, Table 2
  MIC: 16 µg/mL (≈ 22.3 µM)
K. pneumoniae 4107; Klebsiella pneumoniae, 4107, Table 3
  MIC: 32 µg/mL (≈ 44.6 µM)
E. coli 4102
  MIC: 1 µg/mL
K. baumanii 2579
  MIC: 32 µg/mL
E. coli 2668
  MIC: 1 µg/mL
E. cloacae 2689
  MIC: 32 µg/mL (≈ 44.6 µM)
E. coli 4103
  MIC: > 32 µg/mL
K. pneumoniae 4088
  MIC: > 32 µg/mL
